Assay results reported in patent US9139810B2, “Method for culturing microorganisms to incorporate a substitue element” (priority 2010, dated 2015).

Experiments:
E. coli K12 NBRC3301 [1] = assay type: cell-based, Escherichia coli
E. coli K-12 (NBRC3993) = settings: additive (mg/mL as printed in the row) to S(−)fa medium, 37° C.
E. coli K12NBRC3301 = test: S starvation, adaptation culture with dSi and elementary analysis of cells by ICP-MS (Example 16); assay type: cell-based, Escherichia coli
E. coli K12 NBRC 3301 = test: Growth and Si content of acetone-treated cells by ICP/MS (Example 4); assay type: cell-based, Escherichia coli; settings: lac 1 + compound 5
B. subtilis NBRC13719 = assay type: cell-based, Bacillus subtilis; settings: Glc(1) + Yex (0.5); day 5
[2] = tested on: B. subtilis Marburg NBRC13719; test: Growth and Si content of acetone-treated cells by ICP/MS (Example 4); assay type: cell-based, Bacillus subtilis; settings: for D 1 OD 660 nm: 22 hours; for D1ACW: acetone-treated dried cells
E. coli K12 NBRC3301 [3] = settings: C(αC)Y medium, FIG. 1
E. coli K12 NBRC3301 [4] = test: Growth and adaptation culture in C(αC+X)Y medium with mmSi (Example 2, FIG. 2); assay type: cell-based, Escherichia coli
Experimental: A C source-limited medium (C(αC) medium) was prepared by adding a limited amount of lactate Na as C source (denoted as “αC”) to a C source-deleted C (−) medium. Escherichia coli growth was then examined using a C(αC+X) medium prepared by adding a methyl group-containing organic silicon compound mmSi (methyltrimethoxysilane (see Tables 2 and 3 for abbreviations for the compound)) to the C(αC) medium as a C source substitute compound; that is, an X-containing compound. Moreover, the effects resulting from adaptation culture were examined (specifically, after completion of the 1st (T1) culture, 2nd subculture (T2) was started in a medium of the same composition).
C source substitute compound: X: mmSi (methyltrimethoxysilane). Culture conditions: 100 mL/Erlenmeyer flask; 33° C.; and 130 rpm. At the time of completion of the 1st culture of, a portion of the culture fluid was pipetted off. Cells were washed by centrifugation and then seeded in a medium of the same composition. The OD value at the initiation of the subculture was adjusted to be close to the initial OD value of the 1st culture generation.
In a manner similar to that in Example 1, E. coli K12 starter cells were grown in a GY medium, cells were washed, and then subjected to C source starvation culture. The resulting cells were seeded as starter cells in a medium. On day 2, the 1st culture (denoted as “T1d2” in FIG. 2) cells were washed and then the cells were seeded as starter cells in a medium of the same composition for 2nd subculture for adaptation. On day 2 of the 2nd subculture (T2d2), the growth was measured.

S. cerevisiae NBRC0268 = test: Growth and Si content of acetone-treated cells by ICP/MS (Example 4); assay type: cell-based, Saccharomyces cerevisiae; settings: lac 3 + compound 5
[5] = lac 2 mg/mL + Y 0.5 mg/mL, FIG. 2
[6] = S(dSi)fa medium, d 3, mean of 2 to 3 flasks

Molecule: O=BOB(O)OB(O)OB=O [BB, Borax or sodium borate]
- colony count and OD value compared with medium with only limited C source (E. coli K12 NBRC3301 [1]; C source substitute compound): increased
- OD 660 nm (d5) (E. coli K12 NBRC3301 [1]; Lac (2) + Y, X (10), day 5): 1.59

Molecule: N[C@@H](CS)C(=O)O [L-cysteine]
- Amount of E. coli K12NBRC3993 growth OD660 × 10 d (cultured for 1 day) (E. coli K-12 (NBRC3993)): 0.240

Molecule: O=S(=O)([O-])[O-].[Na+].[Na+] [Sodium sulfate, Sodium sulfate, anhydrous, reference compound]
- OD 660 nm (E. coli K12NBRC3301; test 2, S(−)fa + Na2SO4 (0.2 mg/mL), d3): 200 (OD 4.2)
- Amount of E. coli K12NBRC3993 growth OD660 × 10 d (cultured for 1 day) (E. coli K-12 (NBRC3993)): 0.144

Molecule: CCO[Si](C)(C)OCC [emSi, Diethoxydimethylsilane]
- D 1 OD 660 nm (E. coli K12 NBRC 3301; 22 hours): 1.79
- D1ACW (E. coli K12 NBRC 3301; acetone-treated dried cells): 203 mg/100 mL
- OD 660 nm (d5) (B. subtilis NBRC13719): 6.69
- D 1 OD 660 nm ([2]; lac 1 + compound 5): 2.48
- D1ACW ([2]; lac 1 + compound 5): 289 mg/100 mL

Molecule: CCO [ethanol]
- OD with ethanol equimolar to the ethyl group in emSi, compared with emSi (E. coli K12 NBRC3301 [3]): lower than that of emSi

Molecule: CO[Si](C)(OC)OC [mmSi, Methyltrimethoxysilane]
- amount of growth in 2nd subculture versus 1st subculture (E. coli K12 NBRC3301 [4]; adaptation culture, T2d2 vs T1d2): higher than that of the 1st subculture
- OD value compared with control (only limited amount of C source) (E. coli K12 NBRC3301 [4]; [5]): increased
- dose dependence of increases in OD value (E. coli K12 NBRC3301 [4]; [5]): in a dose-dependent manner
- growth on the compound alone (E. coli K12 NBRC3301 [4]; no limited C source (rightmost in FIG. 2)): did not grow
- D 1 OD 660 nm (S. cerevisiae NBRC0268; 22 hours): 3.14
- D1ACW (S. cerevisiae NBRC0268; acetone-treated dried cells): 274 mg/100 mL
- D 1 OD 660 nm ([2]; lac 3 + compound 5): 2
- D1ACW ([2]; lac 3 + compound 5): 309 mg/100 mL

Molecule: Sodium disilicate [dSi]
- OD 660 nm at end of 4th subculture of adaptation culture (E. coli K12NBRC3301; [6]): 1.93
- OD 660 nm at end of 5th subculture of adaptation culture (E. coli K12NBRC3301; [6]): 3.22
- OD 660 nm at end of 3rd subculture of adaptation culture (E. coli K12NBRC3301; S(dSi)fa medium, d 7, mean of 2 to 3 flasks): 1.91
- OD 660 nm at end of 2nd subculture of adaptation culture (E. coli K12NBRC3301; S(dSi)fa medium, d 9, mean of 2 to 3 flasks): 2.00
- OD 660 nm at end of 1st subculture of adaptation culture (E. coli K12NBRC3301; S(dSi)fa medium, d 13, mean of 2 to 3 flasks): 2.13
- OD 660 nm (E. coli K12NBRC3301; test 3, S(−)fa + Na2SO4 (0.02) + dSi (0.4 mg/mL), d3): 170 (OD 6.0)
- OD 660 nm (E. coli K12NBRC3301; test 4, S(−)fa + dSi (0.4 mg/mL), no S source, d4): 190 (OD 3.0)
